Earlier results as cited in patent US20050282773A1, “Modified polysaccharides in combination with anti-cancer drugs for enhanced treatment of cancer” (Pro-Pharmaceuticals, Inc., priority 2004, published 2005).

Tests used:
L-1 sarcoma cells = details: in vivo
B16 melanoma cells = details: in vivo

Row | Compound | liver metastasis of L-1 sarcoma cells (L-1 sarcoma cells) | metastasis of B16 melanoma cells (B16 melanoma cells)
1 | arabinogalactose | inhibited | 
2 | CC(=O)N[C@H]1[C@H](O[C@H]2[C@@H](O)[C@@H](CO)O[C@@H](O[C@H]3[C@H](O)[C@@H](O)C(O)O[C@@H]3CO)[C@@H]2O)O[C@H](CO)[C@@H](O)[C@@H]1O[C@@H]1O[C@H](CO)[C@H](O)[C@H](O)[C@H]1O (stereo partly shown) [lacto-N-tetrose] |  | inhibit
3 | O=C[C@H](O)[C@@H](O)[C@@H](O)[C@H](O)CO [D-galactose] | inhibited | 
4 | CO[C@H]1O[C@H](CO)[C@@H](O[C@@H]2O[C@H](CO)[C@H](O)[C@H](O)[C@H]2O)[C@H](O)[C@H]1O [methyl-α-D-lactoside] |  | inhibit
